Laboratory results: patent US20220183294A1, “PESTICIDALLY ACTIVE AZOLE AMIDE COMPOUNDS” (SYNGENTA CROP PROTECTION AG, priority 2019, published 2022)

Legend:
Assay type in all cases: in vivo
[1] = test system: Diabrotica balteata (Corn root worm); assay: Example B1: Diabrotica balteata (Corn root worm), sprayed maize sprouts; conditions: 96 h, application rate 200 ppm, L2 larvae, 4 days after infestation, read-out: control in at least one of the two categories (mortality or growth inhibition)
Experimental: Example B1: Diabrotica balteata (Corn root worm)
Maize sprouts placed onto an agar layer in 24-well microtiter plates were treated with aqueous test solutions prepared from 10′000 ppm DMSO stock solutions by spraying. After drying, the plates were infested with L2 larvae (6 to 10 per well). The samples were assessed for mortality and growth inhibition in comparison to untreated samples 4 days after infestation.
(§1) The following compounds gave an effect of at least 80% control in at least one of the two categories (mortality or growth inhibition) at an application rate of 200 ppm: […]

[2] = test system: Chilo suppressalis (Striped rice stemborer); assay: Example B4: Chilo suppressalis (Striped rice stemborer), artificial diet; conditions: 144 h, application rate 200 ppm, L2 larvae, 6 days after infestation, read-out: control in at least one of the three categories (mortality, anti-feedant effect, or growth inhibition)
Experimental: Example B4: Chilo suppressalis (Striped rice stemborer) 24-well microtiter plates with artificial diet were treated with aqueous test solutions prepared from 10′000 ppm DMSO stock solutions by pipetting. After drying, the plates were infested with L2 larvae (6-8 per well). The samples were assessed for mortality, anti-feeding effect, and growth inhibition in comparison to untreated samples 6 days after infestation. Control of Chilo suppressalis by a test sample is given when at least one of the categories mortality, anti-feedant effect, and growth inhibition is higher than the untreated sample.

[3] = test system: Plutella xylostella (Diamond back moth); assay: Example B5: Plutella xylostella (Diamond back moth), artificial diet, 24-well; conditions: 192 h, application rate 200 ppm, eggs, 8 days after infestation, read-out: control in at least one of the two categories (mortality or growth inhibition)
Experimental: Example B5: Plutella xylostella (Diamond back moth)
24-well microtiter plates with artificial diet were treated with aqueous test solutions prepared from 10′000 ppm DMSO stock solutions by pipetting. After drying, Plutella eggs were pipetted through a plastic stencil onto a gel blotting paper and the plate was closed with it. The samples were assessed for mortality and growth inhibition in comparison to untreated samples 8 days after infestation.
as §1

[4] = test system: Spodoptera littoralis (Egyptian cotton leaf worm); assay: Example B9: Spodoptera littoralis (Egyptian cotton leaf worm), sprayed cotton leaf discs; conditions: foliar, 72 h, application rate 200 ppm, L1 larvae, 3 days after infestation, read-out: control in at least one of the three categories (mortality, anti-feedant effect, or growth inhibition)
Experimental: Example B9: Spodoptera littoralis (Egyptian cotton leaf worm)
Cotton leaf discs were placed onto agar in 24-well microtiter plates and sprayed with aqueous test solutions prepared from 10′000 ppm DMSO stock solutions. After drying the leaf discs were infested with five L1 larvae. The samples were assessed for mortality, anti-feeding effect, and growth inhibition in comparison to untreated samples 3 days after infestation. Control of Spodoptera littoralis by a test sample is given when at least one of the categories mortality, anti-feedant effect, and growth inhibition is higher than the untreated sample.

[5] = test system: Spodoptera littoralis (Egyptian cotton leaf worm); assay: Example B10: Spodoptera littoralis (Egyptian cotton leaf worm), uptake by lettuce roots from agar; conditions: 144 h, test rate 12.5 ppm, eggs, 6 days after infestation, read-out: control in at least one of the three categories (mortality, anti-feeding, or growth inhibition)
From the text: Example B10: Spodoptera littoralis (Egyptian cotton leaf worm)
Test compounds were applied by pipette from 10′000 ppm DMSO stock solutions into 24-well plates and mixed with agar. Lettuce seeds were placed onto the agar and the multi well plate was closed by another plate which contained also agar. After 7 days the compound was absorbed by the roots and the lettuce grew into the lid plate. The lettuce leaves were then cut off into the lid plate. Spodoptera eggs were pipetted through a plastic stencil onto a humid gel blotting paper and the lid plate was closed with it. The samples were assessed for mortality, anti-feedant effect and growth inhibition in comparison to untreated samples 6 days after infestation.
The following compounds gave an effect of at least 80% control in at least one of the three categories (mortality, anti-feeding, or growth inhibition) at a test rate of 12.5 ppm: […]

[6] = test system: Plutella xylostella (Diamondback Moth); assay: Example B13: Plutella xylostella (Diamondback Moth), artificial diet, 96-well; conditions: 216 h, application rate 500 ppm, eggs/L1 larvae, 9 days after infestation
Experimental: Example B13: Plutella xylostella (Diamondback Moth)
96-well microtiter plates containing artificial diet were treated with aqueous test solutions, prepared from 10′000 ppm DMSO stock solutions, by a liquid handling robot. After drying, eggs (-30 per well) were infested onto a netted lid which was suspended above the diet. The eggs hatch and L1 larvae move down to the diet. The samples were assessed for mortality 9 days after infestation.
The following compounds gave an effect of at least 80% mortality at an application rate of 500 ppm: […]

[7] = test system: Euschistus heros (Neotropical Brown Stink Bug); assay: Example B2: Euschistus heros (Neotropical Brown Stink Bug), sprayed soybean leaves; conditions: 120 h, application rate 200 ppm, N2 nymphs, 5 days after infestation, read-out: effect in at least one of the two categories (mortality or growth inhibition)
Experimental: Example B2: Euschistus heros (Neotropical Brown Stink Bug)
Soybean leaves on agar in 24-well microtiter plates were sprayed with aqueous test solutions prepared from 10′000 ppm DMSO stock solutions. After drying the leaves were infested with N2 nymphs. The samples were assessed for mortality and growth inhibition in comparison to untreated samples 5 days after infestation.
The following compounds gave an effect of at least 80% in at least one of the two categories (mortality or growth inhibition) at an application rate of 200 ppm: […]

[8] = test system: Frankliniella occidentalis (Western flower thrips); assay: Example B3: Frankliniella occidentalis (Western flower thrips): Feeding/contact activity; conditions: 168 h, application rate 200 ppm, population of mixed ages, 7 days after infestation
Experimental: Example B3: Frankliniella occidentalis (Western flower thrips):Feeding/contact activity
Sunflower leaf discs were placed on agar in 24-well microtiter plates and sprayed with aqueous test solutions prepared from […] stock solutions. After drying the leaf discs were infested with a Frankliniella population of mixed ages. The samples were assessed for mortality 7 days after infestation.

[9] = test system: Myzus persicae (Green peach aphid); assay: Example B8: Myzus persicae (Green peach aphid): Intrinsic activity; conditions: 120 h, test rate 12 ppm, 5 days after infestation
From the text: Example B8: Myzus persicae (Green peach aphid): Intrinsic activity
Test compounds prepared from 10′000 ppm DMSO stock solutions were applied by pipette into 24-well microtiter plates and mixed with sucrose solution. The plates were closed with a stretched Parafilm. A plastic stencil with 24 holes was placed onto the plate and infested pea seedlings were placed directly on the Parafilm. The infested plate was closed with a gel blotting paper and another plastic stencil and then turned upside down. The samples were assessed for mortality 5 days after infestation.

[10] = test system: Myzus persicae (Green peach aphid); assay: Example B12: Myzus persicae (Green Peach Aphid), 96-well sucrose solution; conditions: 120 h, application rate 50 ppm, 5 days after infestation
From the text: Example B12: Myzus persicae (Green Peach Aphid)
Test compounds prepared from 10′000 ppm DMSO stock solutions were applied by a liquid handling robot into 96-well microtiter plates and mixed with a sucrose solution. Parafilm was stretched over the 96-well microtiter plate and a plastic stencil with 96 holes was placed onto the plate. Aphids were sieved into the wells directly onto the Parafilm. The infested plates were closed with a gel blotting card and a second plastic stencil and then turned upside down. The samples were assessed for mortality 5 days after infestation.

C[C@H](NC(=O)c1cc(C(F)(F)F)cc(S(=O)(=O)C(F)(F)F)c1)c1ncnn1-c1ccc(C#N)cn1 [P2, N-[(1S)-1-[2-(5-cyano-2-pyridyl)-1,2,4-triazol-3-yl]ethyl]-3-(trifluoromethyl)-5-(trifluoromethylsulfonyl) benzamide]
≥ 80%: percent control (mortality or growth inhibition) at 200 ppm [1] | percent control (mortality, anti-feedant effect or growth inhibition) at 200 ppm [2] | percent control (mortality or growth inhibition) at 200 ppm [3] | percent control (mortality, anti-feedant effect or growth inhibition) at 200 ppm [4] | percent control (mortality, anti-feeding or growth inhibition) at 12.5 ppm [5] | mortality at 500 ppm [6]

C[C@H](NC(=O)c1cc(C(F)(F)F)nc(C2(C#N)CC2)c1)c1ncnn1-c1ccc(C#N)cn1 [P1, 2-(1-cyanocyclopropyl)-N-[(1S)-1-[2-(5-cyano-2-pyridyl)-1,2,4-triazol-3-yl]ethyl]-6-(trifluoromethyl)pyridine-4-carboxamide]
≥ 80%: percent control (mortality or growth inhibition) at 200 ppm [1] | percent control (mortality, anti-feedant effect or growth inhibition) at 200 ppm [2] | percent control (mortality or growth inhibition) at 200 ppm [3] | percent control (mortality, anti-feedant effect or growth inhibition) at 200 ppm [4] | percent control (mortality, anti-feeding or growth inhibition) at 12.5 ppm [5] | mortality at 500 ppm [6]

CC(NC(=O)c1cc(C(F)(F)F)cc(C(F)(F)C2CC2)c1)c1ncnn1-c1ncc(OC(F)F)cn1 (stereo not shown) [P6, 3-[cyclopropyl(difluoro)methyl]-N-[1-[2-[5-(difluoromethoxy)pyrimidin-2-yl]-1,2,4-triazol-3-yl]ethyl]-5-(trifluoromethyl) benzamide]
≥ 80%: percent control (mortality or growth inhibition) at 200 ppm [1] | percent effect (mortality or growth inhibition) at 200 ppm [7] | percent control (mortality, anti-feedant effect or growth inhibition) at 200 ppm [2] | percent control (mortality or growth inhibition) at 200 ppm [3] | percent control (mortality, anti-feedant effect or growth inhibition) at 200 ppm [4] | mortality at 500 ppm [6]

CC(NC(=O)c1cc(C(F)(F)F)cc(S(=O)(=O)C(F)(F)F)c1)c1ncnn1-c1ccc(C#N)cn1 (stereo not shown) [P5, N-[1-[2-(5-cyano-2-pyridyl)-1,2,4-triazol-3-yl]ethyl]-3-(trifluoromethyl)-5-(trifluoromethylsulfonyl)benzamide]
≥ 80%: percent control (mortality or growth inhibition) at 200 ppm [1] | mortality at 200 ppm [8] | percent control (mortality, anti-feedant effect or growth inhibition) at 200 ppm [2] | percent control (mortality or growth inhibition) at 200 ppm [3] | percent control (mortality, anti-feedant effect or growth inhibition) at 200 ppm [4] | percent control (mortality, anti-feeding or growth inhibition) at 12.5 ppm [5] | mortality at 500 ppm [6]

CC(NC(=O)c1cc(C2CC2)cc(C(F)(F)F)c1)c1ncnn1-c1ncc(OC(F)F)cn1 (stereo not shown) [P21, 3-cyclopropyl-N-[1-[2-[5-(difluoromethoxy)pyrimidin-2-yl]-1,2,4-triazol-3-yl]ethyl]-5-(trifluoromethyl) benzamide]
≥ 80%: percent control (mortality or growth inhibition) at 200 ppm [1] | percent effect (mortality or growth inhibition) at 200 ppm [7] | percent control (mortality, anti-feedant effect or growth inhibition) at 200 ppm [2] | percent control (mortality or growth inhibition) at 200 ppm [3] | percent control (mortality, anti-feedant effect or growth inhibition) at 200 ppm [4]

CC(NC(=O)c1cc(C2CC2)nc(C(F)(F)F)c1)c1ncnn1-c1ncc(OCC(F)F)cn1 (stereo not shown) [P22, 2-cyclopropyl-N-[1-[2-[5-(2,2-difluoroethoxy)pyrimidin-2-yl]-1,2,4-triazol-3-yl]ethyl]-6-(trifluoromethyl)pyridine-4-carboxamide]
≥ 80%: percent control (mortality or growth inhibition) at 200 ppm [1] | percent control (mortality, anti-feedant effect or growth inhibition) at 200 ppm [2] | percent control (mortality or growth inhibition) at 200 ppm [3] | mortality at 12 ppm [9] | percent control (mortality, anti-feedant effect or growth inhibition) at 200 ppm [4]

C[C@H](NC(=O)c1cc(C(F)(F)F)cc(C(F)(F)C2CC2)c1)c1ncnn1-c1ncc(OCC(F)F)cn1 [P7, 3-[cyclopropyl(difluoro)methyl]-N-[(1S)-1-[2-[5-(2,2-difluoroethoxy)pyrimidin-2-yl]-1,2,4-triazol-3-yl]ethyl]-5-(trifluoromethyl) benzamide]
≥ 80%: percent control (mortality, anti-feedant effect or growth inhibition) at 200 ppm [2] | percent control (mortality or growth inhibition) at 200 ppm [3] | percent control (mortality, anti-feedant effect or growth inhibition) at 200 ppm [4] | mortality at 50 ppm [10] | mortality at 500 ppm [6]
